Measured values reported in patent publication US8937176B2, “Compounds” (Boehringer Ingelheim International GmbH, priority 2011, dated 2015).

Biological target: T1, human recombinant mGluR5 (Homo sapiens, UniProt P41594)
T1 construct: expressed in transfected cells; host or cells: HEK 293 cell line
Test: Positive modulation of mGluR5, calcium based FLIPR assay in HEK 293 cells
Settings: EC50 of the modulation; HEK 293 cell line expressing human recombinant mGluR5; glutamate at approximately 5% basal stimulation; peak height of Ca release fluorescence signal
Experimental: The positive modulation of mGluR5 is measured in a HEK 293 cell line expressing human recombinant mGluR5 and is detected with calcium based FLIPR assay. The cells are cultured with DMEM supplemented with 10% FCS, 2 μg/mL tetracycline, 100 μg/mL hygromycin and 500 μg/mL gneticin. The cell culture media is exchanged for tetracycline-free cell culture media 3-7 days before the assay. One day before the assay the cell culture medium is exchanged to DMEM without glutamine and phenol red and supplemented with 10% FCS, 100 μg/mL hygromycin and 500 μg/mL geneticin. On the assay day, the medium of the subconfluent cultures is removed and the cells are detached by addition of 2.5 ml EDTA(0.02%) per 175 cm2 culture flask for 1 minute. The cells are resuspend in Ringer solution (140 mM NaCl, 5 mM KCl, 2.5 mM CaCl2, 1.5 mM MgCl2, 5 mM Glucose, 10 mM Hepes; adjusted to pH 7.4 with NaOH), pooled and Ringer solution added to adjust the volume to 50 mL. The cell suspension is centrifuged for […] at 1500 U/min (425 g). The supernatant is removed and the cells washed a second time with 50 ml fresh Ringer solution and centrifuged again as before. The supernatant is again removed and the pellet resuspended in Ringer solution to 1,000,000 cells/ml (1×10^6 cells/mL). The cells are plated onto BD BioCoat Poly-D-Lysine 384 well plates (20.000 cells/well; 20 μl/well). The lid covered plates are then incubated until use at 37° C./10% CO2. For dye loading, 20 μl of Calcium-4 assay kit solution (prepared according to the manufacturer's description in Ringer solution) are added to the cells and the plates are incubated for 80 min 37° C. and then 10 min at room temperature.
Controls, Compound Dilution and Assay Execution:
Each assay plate contained wells with “high” and “low” controls:
Low controls 1% DMSO/ringer solution+basal glutamate activation (defined as 100% CTL).
High controls 10 μM CDPPB+basal glutamate activation (defined as 200% CTL).
Test compounds are dissolved and diluted in DMSO to 100-fold the desired concentrations. In a second step, the compounds are diluted in Ringer solution such that the compounds are 4-fold more concentrated than the desired final assay concentration. The final DMSO concentration was 1%.
20 μl of each compound solution are then transferred to the assay plate and the Ca2+ kinetic is measured to determine any intrinsic compound activity. After 5 min incubation in the FLIPR device, the second stimulation with 20 μl of glutamate in Ringer solution (glutamate concentration adjusted to approximately 5% basal stimulation of the maximal possible glutamate effect) is added and the kinetic Ca2+ response of the wells was measured for the modulation effect.
The peak height of the Ca release related fluorescence signal (9-66) is used for the EC50. The EC50 of the modulation is calculated over a nonlinear regression with GraphPad Prism (Table 1).

T1 sequence (P41594 21-1212): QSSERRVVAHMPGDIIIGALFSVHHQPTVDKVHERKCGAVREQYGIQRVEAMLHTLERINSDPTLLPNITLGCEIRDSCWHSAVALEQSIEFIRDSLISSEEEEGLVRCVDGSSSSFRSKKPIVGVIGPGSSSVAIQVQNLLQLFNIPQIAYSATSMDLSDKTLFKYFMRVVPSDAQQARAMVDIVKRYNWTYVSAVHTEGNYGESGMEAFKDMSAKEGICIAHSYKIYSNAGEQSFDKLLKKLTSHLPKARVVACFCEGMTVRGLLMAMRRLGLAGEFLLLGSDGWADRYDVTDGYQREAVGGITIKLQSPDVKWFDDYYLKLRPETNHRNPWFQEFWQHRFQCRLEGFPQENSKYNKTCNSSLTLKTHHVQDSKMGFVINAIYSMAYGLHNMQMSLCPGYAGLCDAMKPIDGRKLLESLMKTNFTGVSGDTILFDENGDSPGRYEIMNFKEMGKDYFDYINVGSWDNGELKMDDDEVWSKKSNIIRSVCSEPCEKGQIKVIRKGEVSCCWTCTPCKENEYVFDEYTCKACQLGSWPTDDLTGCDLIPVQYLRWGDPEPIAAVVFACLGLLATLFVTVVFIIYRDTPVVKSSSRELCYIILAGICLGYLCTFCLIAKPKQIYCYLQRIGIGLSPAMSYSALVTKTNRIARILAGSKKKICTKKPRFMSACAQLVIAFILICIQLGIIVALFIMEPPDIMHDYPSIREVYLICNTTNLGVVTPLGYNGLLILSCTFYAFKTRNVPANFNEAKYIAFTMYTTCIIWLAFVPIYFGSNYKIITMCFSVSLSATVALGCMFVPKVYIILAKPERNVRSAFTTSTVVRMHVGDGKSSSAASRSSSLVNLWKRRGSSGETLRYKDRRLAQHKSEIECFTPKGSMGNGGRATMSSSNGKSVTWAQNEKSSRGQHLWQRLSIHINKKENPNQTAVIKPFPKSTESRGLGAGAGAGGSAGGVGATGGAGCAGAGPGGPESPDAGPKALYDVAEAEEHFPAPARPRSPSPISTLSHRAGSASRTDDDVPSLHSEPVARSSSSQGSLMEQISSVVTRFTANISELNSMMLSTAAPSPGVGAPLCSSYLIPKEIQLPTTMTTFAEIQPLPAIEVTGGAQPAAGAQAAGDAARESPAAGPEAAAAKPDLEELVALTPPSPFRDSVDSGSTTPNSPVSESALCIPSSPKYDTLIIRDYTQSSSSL

CCn1cc(-c2ccc(F)c(C)c2)nc1CC(=O)N1CCN(c2ncccn2)CC1 [Example 7.05.01, 2-(1-Ethyl-4-(4-fluoro-3-methyl-phenyl)-1H-imidazol-2-yl)-1-(4-pyrimidin-2-yl-piperazin-1-yl)-ethanone]
EC50: 174 nM
